# Data from patent US20120288482A1, “THERAPEUTIC AGENT (Y-39983) FOR CORNEAL ENDOTHELIAL DYSFUNCTION” (priority 2009, published 2012).
# Assays:
# [1] = tested on: cultured monkey corneal endothelial cells; conditions: in vitro; cited from earlier work
# [2] = tested on: corneal endothelium; conditions: instillation of 10 mM; cited from earlier work
# [3] = tested on: rabbit corneal endothelial cells; test: Wound healing model of cultured corneal endothelial cells (Example 5); assay type: cell-based
# Method: In this Example, rabbit corneal endothelial cells prepared in the same manner as in Example 4 were used. In this Example, moreover, test substances and control substance prepared in the same manner as in Example 4 were used. Collected rabbit corneal endothelial cells were diluted with a culture medium (about 4 ml, DMEM (Invitrogen, Cat. #12320-032), 10% FBS, 2 ng/mL bFGF (Invitrogen, Cat. #13256-029) and 1% penicillin/streptomycin (Invitrogen, Cat. #15070-063)), and seeded at a division ratio of 1:4 by 2 ml per well in a 6 well plate (Corning Incorporated, Cat. #3516). The cells were incubated to confluent under conditions of 37° C. and 5% CO2. Wound was created in the confluent cells using 1000 μL chip (Molecular BioProducts, 2279). Then, each medicament was added to the culture medium to a final concentration of 0.09, 0.32, 0.95, 3.16 and 9.47 μM compound (I), 10 μM Y-27632 and 10 μM Fasudil. As a control, DMSO was added to a final concentration of 0.04%. At 6 hours, 12 hours and 24 hours after addition of each medicament, the width of the wound was photographed over time, and the width of the wound was evaluated by image analysis.
# [4] = tested on: corneal endothelial loss model; test: Rabbit corneal endothelial loss model, high concentration instillation (Example 2); assay type: in vivo; conditions: 0.05 w/v % (1.58 mM) instillation, 6 times a day, 2 days
# [5] = tested on: rabbit corneal endothelial cells; test: Adhesion of cultured corneal endothelial cells to culture plate (Example 6); assay type: cell-based; conditions: 3 hours after seeding
# Method: In this Example, rabbit corneal endothelial cells prepared in the same manner as in Example 4 were used. In this Example, moreover, test substances and control substance prepared in the same manner as in Example 4 were used. The collected rabbit corneal endothelial cells were diluted, and a culture medium (about 4 ml, DMEM (Invitrogen, Cat. #12320-032), 10% FBS, 2 ng/mL bFGF (Invitrogen, Cat. #13256-029) and 1% penicillin/streptomycin (Invitrogen, Cat. #15070-063)) was added to the cells. Then, each medicament was added to the culture medium to final concentrations of 0.09, 0.32, 0.95, 3.16 and 9.47 μM compound (I), 10 μM Y-27632 and 10 μM Fasudil. As a control, DMSO was added to a final concentration of 0.04%. These cells were seeded in a 96 well plate (Corning Incorporated, Cat. #3595) at 1000 cells/well. After 3 hours from the seeding, suspended cells were removed, and adhered cells were counted by CellTiter-Glo (registered trade mark) Luminescent Cell Viability Assay (promega Cat. #G7572).
SMILES,apoptosis [1],cell adhesion [1],cell cycle [1],wound healing of corneal endothelium [2],"wound healing effect ([3]; 0.95 μM, student's t-test)","wound width ([3]; 9.47 μM, versus control)","wound width ([3]; 0.09-3.16 μM, 24 hours after addition, Dunnett's test)","concentration showing a wound healing effect ([3]; in vitro wound healing model, Example 5)",effect in rabbit corneal endothelial loss model [4],number of adherent cells ([5]; 0.32 μM),concentration at which the number of adherent cells reached plateau [5],number of adherent cells ([5]; all addition groups (0.09-9.47 μM))
"C[C@@H](N)[C@H]1CC[C@H](C(=O)Nc2ccncc2)CC1 [Y-27632, reference compound]",suppression of apoptosis,promotion of cell adhesion,promotion of cell cycle,promotes wound healing of corneal endothelium,,,,,,,,
"C[C@@H](N)c1ccc(C(=O)Nc2ccnc3[nH]ccc23)cc1.Cl [compound (I), (R)-(+)-N-(1H-pyrrolo[2,3-b]pyridin-4-yl)-4-(1-aminoethyl)benzamide monohydrochloride]",,,,,showed a wound healing effect from the early stages of the addition,no statistically significant difference from the control group,significantly decreased,0.09 to 3.16 µM,effect can be confirmed,almost the same level as 10 μM Y-27632,not less than 0.32 μM,increased the number of adherent cells
